{"source": "patent US20250109162A1", "about": "“FLEX-NUCLEOSIDE ANALOGUES, NOVEL THERAPEUTICS AGAINST VIRUSES” (UNIVERSITY OF MARYLAND, BALTIMORE COUNTY, priority 2022, published 2025)", "key": {"[1]": {"assay": "Cytotoxicity in HBV (Tavis) assay (Table 8)", "type": "cell-based"}, "HHV-6B, Z29": {"test_system": "HHV-6B, Z29", "assay": "microbe, parasite or virus in culture", "type": "cell-based, human herpesvirus 6", "settings": "Human betaherpesvirus 6, MOLT-3"}, "BK, Gardner": {"test_system": "BK, Gardner", "assay": "microbe, parasite or virus in culture", "type": "cell-based, BK virus (aka Human polyomavirus 1)", "settings": "Betapolyomavirus hominis"}, "HBV": {"test_system": "HBV", "assay": "HBV (Tavis) EC50 (Table 8)", "type": "cell-based", "settings": "Hepatitis B virus"}, "EBOV (VP30, Huh)": {"test_system": "EBOV (VP30, Huh)", "assay": "microbe, parasite or virus in culture", "type": "cell-based, Ebola Virus", "settings": "Zaire ebolavirus"}, "[2]": {"test_system": "Epstein-Barr virus, strain Akata", "assay": "microbe, parasite or virus in culture", "type": "cell-based", "settings": "for EC90: read-out: EC90 - compound concentration that reduces viral replication by 90%"}, "Akata cells": {"test_system": "Akata cells", "settings": "human"}, "[3]": {"test_system": "Ebola Virus, strain Zaire", "type": "cell-based"}, "Enterovirus": {"test_system": "Enterovirus", "assay": "microbe, parasite or virus in culture", "type": "cell-based"}, "[4]": {"test_system": "Chikungunya Virus, strain S27, ATCC VR-64", "assay": "microbe, parasite or virus in culture", "type": "cell-based"}, "Vero cells": {"test_system": "Vero cells", "settings": "African green monkey"}, "CHIKV": {"test_system": "CHIKV", "assay": "CHIKV IC50 (Table 8)", "type": "cell-based", "settings": "Chikungunya virus"}, "DENV2": {"test_system": "DENV2", "assay": "DENV2 IC50 (Table 8)", "type": "cell-based, Dengue Virus 2", "settings": "Dengue virus"}, "[5]": {"test_system": "MERS Coronavirus, strain EMC", "type": "cell-based"}, "[6]": {"test_system": "Dengue Virus 2, strain New Guinea C", "type": "cell-based"}, "HPV11 replicon": {"test_system": "HPV11 replicon", "type": "cell-based, Human papillomavirus"}, "[7]": {"settings": "human gammaherpesvirus 4, Akata"}}, "note": "Values joined by “and” are separate entries in the source; they are usually repeats but may differ in a detail not shown here. Equal values may be shown once. Read-outs that look alike come from different tables or passages of the source.", "data": [{"smiles": "O=c1[nH]c(=O)n([C@@H]2C[C@@H](O)[C@H](CO)O2)cc1-c1cccs1", "note": "[CHK-02, 1-((2S,4R,5S)-4-hydroxy-5-(hydroxymethyl)tetrahydrofuran-2-yl)-5-(thiophen-2-yl)pyrimidine-2,4(1H,3H)-dione]", "values": [{"measurement": "CC50", "setting": "[1]", "result": "> 32", "unit": "µM"}, {"measurement": "EC50", "setting": "HHV-6B, Z29", "result": 11.1, "unit": "µM"}, {"measurement": "EC50", "setting": "BK, Gardner", "result": "< 0.048", "unit": "µM"}, {"measurement": "CC50", "setting": "in vitro", "result": "> 150", "unit": "µM"}, {"measurement": "EC50", "setting": "HBV", "result": "< 0.32", "unit": "µM"}, {"measurement": "EC50", "setting": "EBOV (VP30, Huh)", "result": 20.6, "unit": "µM"}, {"measurement": "EC50", "setting": "[2]; [7]", "result": 10.7, "unit": "µM"}]}, {"smiles": "Cc1ccc(-c2cn([C@@H]3C[C@@H](O)[C@H](CO)O3)c(=O)[nH]c2=O)s1", "note": "[CHK-03, 1-((2S,4R,5S)-4-hydroxy-5-(hydroxymethyl)tetrahydrofuran-2-yl)-5-(5-methylthiophen-2-yl)pyrimidine-2,4(1H,3H)-dione]", "values": [{"measurement": "CC50", "setting": "Akata cells", "result": "> 100", "unit": "µM"}]}, {"smiles": "Nc1nc(=O)n([C@@H]2C[C@@H](O)[C@H](CO)O2)cc1-c1ccco1", "note": "[CHK-05, 4-amino-5-(furan-2-yl)-1-((2S,4R,5S)-4-hydroxy-5-(hydroxymethyl)tetrahydrofuran-2-yl)pyrimidin-2(1H)-one]", "values": [{"measurement": "EC50", "setting": "[3]", "result": 18, "unit": "µM"}, {"measurement": "EC50", "setting": "Enterovirus", "result": 24, "unit": "µM"}, {"measurement": "CC50", "setting": "Huh7 cells; human", "result": "> 100", "unit": "µM"}, {"measurement": "CC50", "setting": "Akata cells", "result": "> 100", "unit": "µM"}, {"measurement": "EC50", "setting": "[4]", "result": "> 42", "unit": "µM"}, {"measurement": "EC50", "setting": "[4]; Chikungunya virus", "result": "> 68", "unit": "µM"}, {"measurement": "CC50", "setting": "Vero cells", "result": "> 100", "unit": "µM"}, {"measurement": "EC90", "setting": "[2]; [7]", "result": "> 100", "unit": "µM"}]}, {"smiles": "Nc1nc(=O)n([C@@H]2C[C@@H](O)[C@H](CO)O2)cc1-c1cccs1", "note": "[CHK-06, 4-amino-1-((2S,4R,5S)-4-hydroxy-5-(hydroxymethyl)tetrahydrofuran-2-yl)-5-(thiophen-2-yl)pyrimidin-2(1H)-one]", "values": [{"measurement": "IC50", "setting": "CHIKV", "result": 76.2, "unit": "µM"}]}, {"smiles": "Cc1ccc(-c2cn([C@@H]3C[C@@H](O)[C@H](CO)O3)c(=O)nc2N)o1", "note": "[CHK-08, 4-amino-1-((2S,4R,5S)-4-hydroxy-5-(hydroxymethyl)tetrahydrofuran-2-yl)-5-(5-methylfuran-2-yl)pyrimidin-2(1H)-one]", "values": [{"measurement": "IC50", "setting": "DENV2", "result": 74, "unit": "µM"}]}, {"smiles": "Nc1ccn(C[C@@H](CO)OCP(=O)(O)O)c(=O)n1", "note": "[Cidofovir, reference compound]", "values": [{"measurement": "EC50", "setting": "[2]; read-out: EC50 - compound concentration that reduces viral replication by 50%", "result": 5.94, "unit": "µM"}, {"measurement": "EC90", "setting": "[2]", "result": 73.5, "unit": "µM"}]}, {"smiles": "O=c1nc(NO)ccn1[C@@H]1O[C@H](CO)[C@@H](O)[C@H]1O", "note": "[EIDD-1931]", "values": [{"measurement": "CC50", "setting": "HVero 76 cells", "result": ">100", "unit": "µg/mL"}, {"measurement": "CC50", "setting": "Vero 76 cells", "result": ">10", "unit": "µg/mL"}, {"measurement": "EC50", "setting": "[5]", "result": "0.036 µg/mL and 0.034 µg/mL"}]}, {"smiles": "NC(=O)c1nc(F)c[nH]c1=O", "note": "[Favipiravir, reference compound]", "values": [{"measurement": "CC50", "setting": "Vero cells", "result": "> 1000", "unit": "µM"}]}, {"smiles": "C#C[C@@]1(O)[C@H](O)[C@@H](CO)O[C@H]1n1ccc2c(N)ncnc21", "note": "[NITD008]", "values": [{"measurement": "CC50", "setting": "Huh7 cells", "result": "> 100", "unit": "µM"}, {"measurement": "EC50", "setting": "[6]", "result": "0.36 µM and 0.43 µM"}]}, {"smiles": "Nc1nc2c(ncn2CCOCP(=O)(O)O)c(=O)[nH]1", "note": "[PMEG]", "values": [{"measurement": "EC50", "setting": "HPV11 replicon", "result": "2 to 9.2", "unit": "µM"}]}]}
